{"source": "patent US7309712B2", "about": "“1H-pyrazoles useful in therapy” (Pfizer Limited, priority 2005, dated 2007)", "key": {"[1]": {"target": "T1, Progesterone Receptor (PR) (Homo sapiens, UniProt P06401)", "T1 construct": "endogenous in cells; host or cells: T47D human breast mammary carcinoma cells", "T1 sequence (P06401 1-933)": "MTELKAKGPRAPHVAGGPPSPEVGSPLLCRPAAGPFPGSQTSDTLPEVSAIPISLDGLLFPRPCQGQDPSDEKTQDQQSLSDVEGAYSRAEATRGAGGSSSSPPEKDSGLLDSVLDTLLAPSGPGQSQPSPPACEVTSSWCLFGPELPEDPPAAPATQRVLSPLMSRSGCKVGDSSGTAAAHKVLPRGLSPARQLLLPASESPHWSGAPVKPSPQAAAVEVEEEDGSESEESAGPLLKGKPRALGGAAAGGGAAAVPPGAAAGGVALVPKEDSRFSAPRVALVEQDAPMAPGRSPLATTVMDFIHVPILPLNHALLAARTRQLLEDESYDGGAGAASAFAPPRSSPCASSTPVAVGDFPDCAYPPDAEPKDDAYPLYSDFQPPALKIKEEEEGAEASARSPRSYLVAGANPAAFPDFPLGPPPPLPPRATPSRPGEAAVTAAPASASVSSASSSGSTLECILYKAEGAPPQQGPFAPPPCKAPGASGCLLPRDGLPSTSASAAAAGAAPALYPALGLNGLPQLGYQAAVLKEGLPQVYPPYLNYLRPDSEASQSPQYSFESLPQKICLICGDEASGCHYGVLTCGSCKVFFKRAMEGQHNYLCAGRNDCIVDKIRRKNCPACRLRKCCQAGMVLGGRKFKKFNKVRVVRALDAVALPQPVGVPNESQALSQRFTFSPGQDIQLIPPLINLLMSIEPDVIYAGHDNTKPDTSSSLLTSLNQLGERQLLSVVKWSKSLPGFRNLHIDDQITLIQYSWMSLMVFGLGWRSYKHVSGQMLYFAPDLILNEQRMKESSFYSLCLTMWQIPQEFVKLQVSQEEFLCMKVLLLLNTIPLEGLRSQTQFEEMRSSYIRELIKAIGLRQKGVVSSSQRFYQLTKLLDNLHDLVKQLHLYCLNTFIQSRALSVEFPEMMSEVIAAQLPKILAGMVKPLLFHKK", "assay": "In vitro functional assay for progesterone receptor (PR) antagonism: inhibition of progesterone-induced alkaline phosphatase expression in T47D cells (Screen 1.0)", "format": "cell-based", "conditions": "antagonist format (5 nM P4), alkaline phosphatase inhibition in T47D human mammary carcinoma cells", "from_the_text": "1.0 In Vitro Functional Assay for Progesterone Receptor (PR) Antagonism\nThe assay for PR antagonism takes advantage of the extensively reported modulation of alkaline phosphatase (AP) expression in human breast T47D mammary carcinoma cells {Beck, et al., (1993). The progesterone antagonist RU486 acquires agonist activity upon stimulation of cAMP signalling pathways. Proc. Natl. Acad. Sci., USA, 90, 4441-4445; Fensome, et al. (2002). New progesterone receptor antagonists: 3,3-disubstituted-5-aryloxindoles. Bioorg. Med. Chem. Lett., 12, 3487-3490; Zhang et al., (2002a). 6-Aryl-1,4-dihydro-benzo d 1,3 oxazin-2-ones: a novel class of potent, selective, and orally active nonsteroidal progesterone receptor antagonists. J. Med. Chem., 45, 4379-4382; Zhang et al., (2003). Novel 6-aryl-1,4-dihydrobenzo[d]oxazine-2-thiones as potent, selective, and orally active nonsteroidal progesterone receptor agonists. Bioorganic & Med. Chem. Lett., 13, 1313-1316; Zhang et al., (2002b). Potent nonsteroidal progesterone receptor agonists: synthesis and SAR study of 6-aryl benzoxazines. Bioorganic & Med. Chem. Lett., 12, 787-790; Zhang, et al., (2000). In vitro characterization of trimegestone: a new potent and selective progestin. Steroids 65, 637-643}. […] In the absence of progesterone any agonist activity is also observed as an induction of AP activity. By running the assay in two formats (±progesterone (P4)), compounds behaving as PR antagonists, agonists or partials can be identified.\nThe materials required to grow T47D cells and perform the progesterone-induced AP assay are outlined in Table 1.\nAssay media (agonist format): DMEM without phenol red+5% CS-FCS+2 mM Glutamax. Assay media (antagonist format): DMEM without phenol red+5% CS-FCS+2 mM Glutamax+10 nM P4.\nBriefly, T47D cells are grown by propagating in DMEM+10% FBS+2 mM Glutamax at 37° C./5% CO2. At 80-90% confluence, the media is exchanged for phenol red free DMEM+5% CS-FCS (Assay media) and cultured for a further 24 hrs at 37° C./5% CO2. T47D cells are then plated at 2.5×10^4 cells/well in 100 μL assay media in sufficient 96 well plates for the assay, in triplicates of each condition. For example, for a 5-point IC50 curve on one compound, this is equivalent to […]. These plates are then cultured for 24 hrs at 37° C./5% CO2, leaving the outside wells blank by the addition of 200 μL PBS.\nA 10 mM stock solution of compounds is prepared in DMSO (stored −20° C. in 10 μL aliquots). A 10 mM DMSO stock of RU486 is used as a standard pure PR antagonist. The compounds under investigation are added to assay medium, or a mixture of 0.05% pluronic acid in PBS, ±10 nM P4 to give a final concentration of 20 μM (i.e. 10 μL of the 10 mM stock to […] assay medium ±10 nM P4). The samples are mixed thoroughly and serial dilutions of compounds from 10 µM to 0.1 nM in a 96 well plate, are prepared as follows:\nThe outside wells are left blank. Assay medium (225 μL) is added to one half of the plate (−P4), rows 3-8, and to the other half of the plate, assay medium +10 nM P4. To row 2, 250 μL of the top concentration of compound (20 μM±10 nM P4) is added. 25 μL of the […] stock from row 2 is removed and added to the 225 μL of assay medium±10 nM P4 in row 3 and thoroughly mixed. This process is repeated down the plate to row 7 to achieve serial dilutions. The vehicle control is adjusted to contain 0.1% DMSO (i.e. 20 μL to 10 mL assay medium±10 nM P4 to give a concentration of 0.2% DMSO, add 250 μL to row 8).\n100 μL of reagent from the dilution plates are transferred into the corresponding wells containing T47D cells assay medium, to give a final concentration of 10 μM to 0.1 nM compound (5 nM P4 antagonist format). The cells were incubated for 20 hrs at 37° C./5% CO2., then media is removed, cells washed with PBS (200 μL) and lysed by placing the cells at −80° C. for 15 min and thawing at room temp. The freeze-thaw lysis is repeated, then PBS (50 μL) is added to each well. […]"}}, "note": "pIC50: −log10 of the molar value.", "data": [{"smiles": "CS(=O)(=O)Cn1nc(C2CC2)c(Oc2ccc(C#N)cc2)c1C1CC1", "note": "[Example 1, 4-(3,5-Dicyclopropyl-1-methanesulfonylmethyl-1H-pyrazol-4-yloxy)-benzonitrile]", "values": [{"measurement": "melting point", "result": "141.5 to 142.5", "unit": "°C"}]}, {"smiles": "Cc1cc(Oc2c(C3CC3)nn(CS(C)(=O)=O)c2C2CC2)ccc1C#N", "note": "[Example 2, 4-(3,5-dicyclopropyl-1-methanesulfonylmethyl-1H-pyrazol-4-yloxy)-2-methyl-benzonitrile]", "values": [{"measurement": "melting point", "result": "140.7 to 141.3", "unit": "°C"}]}, {"smiles": "Cc1cc(Oc2c(C3CC3)nn(CS(C)(=O)=O)c2C2CC2)cc(C)c1C#N", "note": "[Example 3, 4-(3,5-dicyclopropyl-1-methanesulfonylmethyl-1H-pyrazol-4-yloxy)-2,6-dimethyl-benzonitrile]", "values": [{"measurement": "pIC50", "setting": "[1]", "result": 8.10}]}, {"smiles": "CS(=O)(=O)Cn1nc(C2CC2)c(Oc2ccc(C#N)c(F)c2)c1C1CC1", "note": "[Example 5, 4-(3,5-dicyclopropyl-1-methanesulfonylmethyl-1H-pyrazol-4-yloxy)-2-fluoro-benzonitrile]", "values": [{"measurement": "pIC50", "setting": "[1]", "result": 7.36}]}, {"smiles": "Cc1cc(Oc2c(C3CC3)nn(CS(C)(=O)=O)c2C)ccc1C#N", "note": "[Example 17, 4-(3-cyclopropyl-1-methanesulfonylmethyl-5-methyl-1H-pyrazol-4-yloxy)-2-methyl-benzonitrile]", "values": [{"measurement": "pIC50", "setting": "[1]", "result": 7.66}]}, {"smiles": "Cc1cc(Oc2c(C3CC3)nn(CS(C)(=O)=O)c2C)cc(C)c1C#N", "note": "[Example 19, 4-(3-cyclopropyl-1-methanesulfonylmethyl-5-methyl-1H-pyrazol-4-yloxy)-2,6-dimethyl-benzonitrile]", "values": [{"measurement": "pIC50", "setting": "[1]", "result": 8.15}]}, {"smiles": "Cc1cc(Oc2c(C)nn(CS(C)(=O)=O)c2C2CC2)cc(C)c1C#N", "note": "[Example 20, 4-(5-cyclopropyl-1-methanesulfonylmethyl-3-methyl-1H-pyrazol-4-yloxy)-2,6-dimethyl-benzonitrile]", "values": [{"measurement": "pIC50", "setting": "[1]", "result": 7.82}]}, {"smiles": "CCc1nn(CS(C)(=O)=O)c(CC)c1Oc1cc(C)c(C#N)c(C)c1", "note": "[Example 23, 4-(3,5-diethyl-1-methanesulfonylmethyl-1H-pyrazol-4-yloxy)-2,6-dimethyl-benzonitrile]", "values": [{"measurement": "pIC50", "setting": "[1]", "result": 8.22}]}]}
